Results on two compounds are retold here after publication PMC11901902, “Design, Synthesis, and Cytotoxicity Evaluation of Novel Indolin-2-One Based Molecules on Hepatocellular Carcinoma HepG2 Cells as Protein Kinase Inhibitors” (Molecules, 2025).

In one assay the target is T1, EGFR (Homo sapiens, UniProt P00533).
T1 construct: purchased BPS Bioscience 40721
Description: Kinase-Glo Plus luminescence kinase inhibition assay, EGFR. It is filed as biochemical. Conditions: 10 µM ATP, 30 °C, 40 min; mean ± SEM. The method, then:
(§1) The enzyme inhibition assay for the tested molecules was performed at BPS Bioscience Corporation, San Diego, CA, USA. The following materials served as the enzyme sources, Poly (Glu, Tyr) sodium salt (4:1, Glu:Tyr) (Sigma#P7244) served as the standardized substrate, and the Kinase-Glo Plus Luminescence kinase assay kit (Promega # V3772) was used. […] Glo Plus luminescence kinase assay kits. The assays were performed using Kinase-Glo Plus luminescence (Promega Corporation, Madison, WI, USA).
The tested molecules 9, 20, and indurbin were diluted to 100 µL in DMSO (10%), and 5 µL of the solution was added to a 50-µL enzyme reaction until the final concentration of DMSO was 1% in all of reactions. The enzymatic reactions were conducted at 30 °C for 40 min. The reaction mixture contained enzyme substrate and respective kinases. After the enzymatic reaction, 50 µL of enzyme-Glo Plus luminescence […] assay solution (Promega) was added to each reaction, and the plate was incubated for 5 min at room temperature. The luminescence signal was measured using a BioTek Synergy 2 microplate reader. The luminescence data were analyzed using the computer software GraphPad Prism. The difference between luminescence intensities in the absence of enzyme (Lut) and in the presence of enzyme (Luc) was defined as 100% activity (Lut − Luc). […] The IC50 value was determined using GraphPad Prism software. […]
Glo Plus luminescence kinase assay kits were used in these assays. […] The assay measures kinase activity by quantitating the amount of ATP remaining in the solution following kinase reaction. […] After the enzymatic reaction, 50 µL of Kinase-Glo Plus Luminescence kinase assay solution (Promega) was added to each reaction, and the plate was incubated for 5 min at room temperature. The luminescence signal was measured using a BioTek Synergy 2 microplate reader. […] The luminescence data were analyzed using the Graphpad Prism software.
Background: Kinase-Glo measures the ATP left after a reaction by luminescence.

A further assay has as its system HepG2 cells. The experiment in a line: Annexin-V-FITC/PI apoptosis assay. It is filed as cell-based, human. Conditions: HepG2, compound at its IC50, 24 h. The method, then: Then, the cells were washed with PBS and detached by trypsin. The detached cells were collected into a 15-mL centrifuged tube, washed with ice-cold PBS twice, and centrifuged at 1200 rpm for 5 min. A volume of 0.1 mL binding buffer was added to the treated HepG-2 cells, followed by adding 5 μL of annexin V-FITC and 5 μL of 50 μg/mL PI staining reagents. After mixing and reacting at 25 °C for 15 min in the dark, the apoptotic cell percentages were analyzed by a flow cytometer [FACS Calibur flow cytometer (BD Biosciences)] (Table S5).

The next assay concerns Bcl-2. The experiment in a line: ELISA of Bcl-2 in treated HepG-2 cells. It is filed as cell-based, human. The note with it: HepG-2, compound at its IC50; ± S.E.M; control 360.90±31.71. The procedure: (§2) HepG2 cells were cultured in RPMI 10% + 5%FBS penicillin/streptomycin and were incubated at a humidity 5% CO2 and maintained at 37 °C. […] HepG2 cells were cultured as a monolayer in T-25 flasks and were seeded to attain 30% confluency prior to treatment. The main 100 mM stock dissolved in DMSO was diluted with the cell culture medium in order to reach the previously determined IC50 concentration of each of the three preparations. After that, HepG2 cells were collected via trypsinization and centrifuged at 10,000 rpm. The pellet was then rinsed with PBS and lysed in RIPA lysis buffer at 4 °C for 45 min, then centrifuged at 14,000 rpm for 20 min to remove the cellular debris. Lysates were then collected and stored at […] for protein determination. The levels of p53, p21, Fas-L, Bax, Bcl-2, and caspase 3/7 were assessed using the human P53 ELISA kit (Catalog No. ABIN6962151), P21 ELISA kit (Catalog No. ABIN6966175), Human Apoptosis Ligand (FAS-L), Bax ELISA kit, Human Factor-Related. Bcl-2 ELISA kit ELISA kit, and caspase3/7 ELISA kit (Elabscience Biotechnology Co., Wuhan, Hubei, China). The procedure of the used kits was done according to the manufacturer’s instructions. Briefly, equal amounts of cell lysates were loaded and then probed with specific antibodies. The samples were measured at 450 nm in ROBONEK P2000 ELISA reader. […]
(In general: In an ELISA, binding on a coated surface is turned into a signal by an enzyme label.)

A further assay concerns Bax. Description: ELISA of Bax in treated HepG-2 cells. It is filed as cell-based, human. Conditions: HepG-2, compound at its IC50; ± S.E.M; control 18.93±11.71. The method, then:
as §2

The target in another assay is T2, CDK-2 (Homo sapiens, UniProt P24941).
T2 construct: purchased BPS Bioscience 41101
Description: Kinase-Glo Plus luminescence kinase inhibition assay, CDK-2. The note with it: for IC50: 10 µM ATP, 30 °C, 40 min, mean ± SEM. It is filed as biochemical. The method, then:
as §1
The tested molecules 9, 20, and indurbin were diluted to 100 µL in DMSO (10%), and 5 µL of the solution was added to a 50-µL enzyme reaction until the final concentration of DMSO was 1% in all of reactions. The enzymatic reactions were conducted at 30 °C for 40 min. The reaction mixture contained enzyme substrate and respective kinases. After the enzymatic reaction, 50 µL of enzyme-Glo Plus luminescence […] assay solution (Promega) was added to each reaction, and the plate was incubated for 5 min at room temperature. The luminescence signal was measured using a BioTek Synergy 2 microplate reader. The luminescence data were analyzed using the computer software GraphPad Prism. The difference between luminescence intensities in the absence of enzyme (Lut) and in the presence of enzyme (Luc) was defined as 100% activity (Lut − Luc). The values of enzyme activity percentages versus five concentrations of the small molecule were then plotted using a non-linear regression analysis of the sigmoidal dose–response curve. The IC50 value was determined using GraphPad Prism software. All experiments were repeated three times (Table S3).
Glo Plus luminescence kinase assay kits were used in these assays. The assay was done at Bioscience Laboratory BPS, California, USA. The assay measures kinase activity by quantitating the amount of ATP remaining in the solution following kinase reaction. The luminescent signal from the assay was correlated with the amount of ATP present and inversely correlated with kinase activity. […] All of the enzymatic reactions were conducted at 30 °C for 40 min. The reaction mixture contained 40 mM Tris, pH 7.4, 10 mM MgCl2, 0.1 mg/mL BSA, 1 mM DTT, 10 µM ATP, Kinase substrate, and VEGFR-2, EFGR, CDK-2 and CDK-4 enzymes. After the enzymatic reaction, 50 µL of Kinase-Glo Plus Luminescence kinase assay solution (Promega) was added to each reaction, and the plate was incubated for 5 min at room temperature. The luminescence signal was measured using a BioTek Synergy 2 microplate reader. Kinase activity assays were performed in triplicate for each concentration. The luminescence data were analyzed using the Graphpad Prism software.

T1 sequence (P00533 25-1210): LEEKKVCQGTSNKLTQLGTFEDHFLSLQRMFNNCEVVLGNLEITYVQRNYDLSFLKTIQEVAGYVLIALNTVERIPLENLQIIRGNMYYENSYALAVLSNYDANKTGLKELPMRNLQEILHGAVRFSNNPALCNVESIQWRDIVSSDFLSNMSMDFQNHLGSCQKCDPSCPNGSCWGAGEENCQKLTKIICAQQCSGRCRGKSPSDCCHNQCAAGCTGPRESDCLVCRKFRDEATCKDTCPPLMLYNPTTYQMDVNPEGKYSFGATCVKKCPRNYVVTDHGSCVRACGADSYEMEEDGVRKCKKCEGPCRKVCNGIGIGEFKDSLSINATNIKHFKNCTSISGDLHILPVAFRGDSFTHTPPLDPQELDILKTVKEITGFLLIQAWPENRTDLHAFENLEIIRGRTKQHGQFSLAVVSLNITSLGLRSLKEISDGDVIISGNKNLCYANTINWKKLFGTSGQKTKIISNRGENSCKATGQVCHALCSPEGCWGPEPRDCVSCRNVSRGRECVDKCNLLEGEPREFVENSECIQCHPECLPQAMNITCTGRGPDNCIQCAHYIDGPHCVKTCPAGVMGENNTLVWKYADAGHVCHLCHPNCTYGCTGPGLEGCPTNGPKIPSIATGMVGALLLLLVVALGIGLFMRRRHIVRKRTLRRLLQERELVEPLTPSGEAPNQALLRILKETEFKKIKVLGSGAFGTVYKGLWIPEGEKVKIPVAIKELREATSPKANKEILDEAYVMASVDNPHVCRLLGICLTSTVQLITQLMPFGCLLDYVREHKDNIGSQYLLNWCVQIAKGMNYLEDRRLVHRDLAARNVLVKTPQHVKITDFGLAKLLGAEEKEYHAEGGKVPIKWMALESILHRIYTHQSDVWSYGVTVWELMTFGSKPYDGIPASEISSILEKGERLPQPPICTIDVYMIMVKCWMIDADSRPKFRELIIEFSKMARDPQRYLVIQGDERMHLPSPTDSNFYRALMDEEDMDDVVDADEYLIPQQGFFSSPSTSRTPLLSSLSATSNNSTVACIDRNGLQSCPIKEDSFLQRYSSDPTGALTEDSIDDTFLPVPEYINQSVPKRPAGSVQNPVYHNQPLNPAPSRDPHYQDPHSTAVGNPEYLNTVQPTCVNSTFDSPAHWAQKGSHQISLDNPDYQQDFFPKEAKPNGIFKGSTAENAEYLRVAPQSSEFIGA

What is called IC50 is the midpoint of a concentration-inhibition curve. As for `O=C1Nc2ccc(Cl)cc2C1=Nc1ccc2nc[nH]c(=O)c2c1` [Compound 9, 6-(5-Chloro-2-oxo-1,2-dihydro-indol-3-ylideneamino)-3H-quinazolin-4-one], the IC50 on EGFR worked out at 87.5 ± 6.71 nM. Further, in the assay on HepG2 cells, the “Apoptosis Early” value amounted to 5.05%, the “Apoptosis Late” value is reported as 3.72%, the “Apoptosis Total” value is given as 8.77% and the Necrosis came to 2.69%. Also, in the assay on HepG2 cells, the “increase of cell population at late apoptosis compared with untreated control” value is “around 11 fold” and the “increase of cells in early apoptotic stage compared with untreated control” value is “around 6 fold”. Moreover, the “Concentration of Bcl-2” value with Bcl-2 was 90.15 ± 8.27 pg/mL. The “Concentration of Bax” value with Bax stood at 88.12 ± 5.27 pg/mL. The IC50 on CDK-2 was determined as 9.39 ± 0.51 nM. Moreover, at CDK-2 (relative to indirubin), the “fold higher inhibitory effect than indirubin against CDK-2” value stood at 4.8 fold.
For the compound `O=C1Nc2ccc(Cl)cc2C1=Nc1ccc(-c2nc3ccccc3c(=O)[nH]2)cc1` [Compound 20, 2-[4-(5-Chloro-2-oxo-1,2-dihydro-indol-3-ylideneamino)-phenyl]-3H-quinazolin-4-one], on EGFR, the 50% inhibitory concentration (IC50) is 32.7 ± 1.61 nM. Further, in the assay with HepG2 cells, the “Apoptosis Early” value is 4.91%, the “Apoptosis Late” value is 6.75%, the “Apoptosis Total” value is 11.66% and the Necrosis worked out at 1.91%. Also, in the assay on HepG2 cells, the “increase of cell population at late apoptosis compared with untreated control” value is listed as roughly 21 fold and the “increase of cells in early apoptotic stage compared with untreated control” value is “around 6 fold”. Also, the “Concentration of Bcl-2” value in the assay with Bcl-2 is 160.32 ± 10.82 pg/mL. For the same compound, the “Concentration of Bax” value in the assay with Bax was 108.32 ± 9.82 pg/mL. Also, the 50% inhibitory concentration (IC50) on CDK-2 was determined as 225 ± 12.6 nM.
